“And” between values parts separate entries of the source, which are not always exact repeats. Identical values can stand only once. The source made the active and inactive calls. No rule for the calls is given here.
Biological target: Perilipin-5 (Homo sapiens) + 1-acylglycerol-3-phosphate O-acyltransferase ABHD5 (Homo sapiens) (UniProt Q00G26+Q8WTS1)
Experiment: ABHD5-PLIN5 interaction inhibitors, dose response, cell lysate, luminescence, proteins expressed in HEK293T (AID 651733);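 also: split Gaussia princeps luciferase complementation between ABHD5 and MLDP fusion proteins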

Perilipin-5 (Homo sapiens) + 1-acylglycerol-3-phosphate O-acyltransferase ABHD5 (Homo sapiens), sequence (Q00G26 whole entry, looked up, the tested form may be a part): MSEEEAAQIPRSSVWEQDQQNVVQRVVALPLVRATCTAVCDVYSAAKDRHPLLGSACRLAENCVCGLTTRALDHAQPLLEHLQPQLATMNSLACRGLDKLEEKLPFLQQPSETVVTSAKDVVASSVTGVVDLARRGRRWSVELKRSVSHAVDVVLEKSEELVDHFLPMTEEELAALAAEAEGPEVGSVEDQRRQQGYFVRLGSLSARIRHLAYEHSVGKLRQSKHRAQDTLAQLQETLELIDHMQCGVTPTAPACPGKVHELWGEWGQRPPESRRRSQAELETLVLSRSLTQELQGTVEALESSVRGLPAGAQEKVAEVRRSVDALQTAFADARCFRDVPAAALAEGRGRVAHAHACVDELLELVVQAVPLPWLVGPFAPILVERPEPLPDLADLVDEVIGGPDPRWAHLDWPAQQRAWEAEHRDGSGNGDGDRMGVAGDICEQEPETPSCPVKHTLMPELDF
Perilipin-5 (Homo sapiens) + 1-acylglycerol-3-phosphate O-acyltransferase ABHD5 (Homo sapiens), sequence (Q8WTS1 whole entry, looked up, the tested form may be a part): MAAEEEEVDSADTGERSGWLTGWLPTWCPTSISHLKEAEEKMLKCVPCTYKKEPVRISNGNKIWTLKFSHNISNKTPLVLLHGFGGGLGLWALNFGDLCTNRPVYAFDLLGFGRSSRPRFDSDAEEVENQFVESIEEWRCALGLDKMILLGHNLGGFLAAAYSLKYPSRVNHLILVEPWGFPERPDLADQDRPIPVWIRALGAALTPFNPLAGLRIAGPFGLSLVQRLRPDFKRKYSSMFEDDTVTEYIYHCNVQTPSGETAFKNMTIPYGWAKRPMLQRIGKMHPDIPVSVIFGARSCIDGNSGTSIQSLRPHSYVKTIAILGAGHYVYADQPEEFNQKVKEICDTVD

**Q.** With C#CCN(C[C@@H]1[C@@H](OC(=O)NCc2ccccc2F)[C@@H](OC(=O)NCc2ccccc2F)Cn2c(=O)ccc(=O)n21)S(=O)(=O)c1ccc(C)cc1 as the molecule, how does the IC50 read?
**A.** Its IC50 is 6.28 µM.

**Q.** How did the IC50 turn out when CC(=O)Oc1ccc(C23c4ccccc4C2(OC(C)=O)c2cc(OC(C)=O)ccc23)cc1 (stereo not given) was run?
**A.** Its IC50 is 1.33 µM.

**Q.** Which IC50 does the source give for COc1ccccc1-c1cc(C(=O)NC2CCN(C)CC2)c2ccc(Cl)c(C)c2n1 here?
**A.** Its IC50 is “inactive”.

**Q.** CCN1C/C(=C/c2ccc(OC)c(O)c2)C(=O)/C(=C/c2ccc(OC)c(O)c2)C1 was tested. Which IC50 did it give?
**A.** The IC50 was 7.28 µM.

**Q.** Which IC50 does the source give for COCCNC(=O)/C(C#N)=C/c1cccc(/C=C(\C#N)C(=O)NCCOC)c1 here?
**A.** The IC50 was 1.09 µM.

**Q.** How did the IC50 turn out when CCCCCNC(=O)C(C1CC1)n1c(=O)c(-c2ccco2)nc2ccccc21 (stereo not given) was run?
**A.** Its IC50 is 9.99 µM.

**Q.** How did the IC50 turn out when CC(C)(C)NC(=O)C(c1ccc(-c2ccccc2)cc1)n1c(=O)c(-c2ccco2)nc2ccccc21 (stereo not given) was run?
**A.** The IC50 was 2.56 µM.

**Q.** Which IC50 does the source give for O=C1/C(=C/c2cccnc2)CC/C1=C\c1cccnc1 here?
**A.** Its IC50 is 4.26 µM.

**Q.** Which IC50 does the source give for O=C(NC1CCCCC1)C(c1ccccc1F)n1c(=O)c(-c2ccco2)nc2ccccc21 (stereo not given) here?
**A.** Its IC50 is 4.15 µM.

**Q.** With O=C(NCc1ccccc1)C(C1CC1)n1c(=O)c(-c2ccco2)nc2ccccc21 (stereo not given) as the molecule, how does the IC50 read?
**A.** Its IC50 is “inactive”.

**Q.** For N#Cc1ncc(Cc2ccccc2)nc1C#N, which IC50 is on record?
**A.** The IC50 was “inactive”.

**Q.** For CCCCCNC(=O)C(c1ccc(C(F)(F)F)cc1)n1c(=O)c(-c2ccco2)nc2ccccc21 (stereo not given), which IC50 is on record?
**A.** Its IC50 is 3.44 µM.

**Q.** CCN(CC)CCOc1ccc(/C(=C(\Cl)c2ccccc2)c2ccccc2)cc1 was tested. Which IC50 did it give?
**A.** The IC50 was 2.39 µM.

**Q.** How did the IC50 turn out when O=C(/C=C/Sc1ccccc1)c1ccc(Cl)cc1 was run?
**A.** Its IC50 is 4 µM.

**Q.** How did the IC50 turn out when Cc1nnc(NC(=O)c2nc(S(=O)(=O)Cc3ccccc3C)ncc2Cl)s1 was run?
**A.** Its IC50 is 5.92 µM.

**Q.** For Cc1ccc(SC2=C(Sc3ccc(C)cc3)C(=O)c3ccccc3C2=O)cc1, which IC50 is on record?
**A.** The IC50 was “inactive”.

**Q.** For Cc1ccc(/C(O)=C2/C(=O)C(=O)OC2c2ccc(Cl)cc2)cc1 (stereo not given), which IC50 is on record?
**A.** The IC50 was “inactive”.

**Q.** How did the IC50 turn out when COCCN(CCOC)c1nc(N)c2c(N)nc3c(c2c1C#N)CC(=O)N3Cc1ccc(Cl)cc1 was run?
**A.** The IC50 was “inactive”.

**Q.** How did the IC50 turn out when CCc1nnc(NC(=O)c2nc(S(=O)(=O)Cc3cccc(C)c3)ncc2Cl)s1 was run?
**A.** Its IC50 is 4.49 µM.

**Q.** C#CCN(C[C@@H]1[C@@H](OC(=O)NCC2CCCCC2)[C@@H](OC(=O)NCC2CCCCC2)Cn2c(=O)ccc(=O)n21)S(=O)(=O)c1ccc(C)cc1 was tested. Which IC50 did it give?
**A.** Its IC50 is 4.5 µM.

**Q.** With CN(C)CCOC1(Cc2ccc(F)cc2)CCC(C(C)(C)C)CC1 (stereo not given) as the molecule, how does the IC50 read?
**A.** The IC50 was 6.65 µM.

**Q.** With NC(=O)C(C(=O)/C=C/c1ccc(Cl)cc1)=C1SCCS1 as the molecule, how does the IC50 read?
**A.** The IC50 was “inactive”.

**Q.** For C#CCN(C[C@@H]1[C@@H](OC(=O)NCc2ccc(OC)c(OC)c2)[C@@H](OC(=O)NCc2ccc(OC)c(OC)c2)Cn2c(=O)ccc(=O)n21)S(=O)(=O)c1ccc(C)cc1, which IC50 is on record?
**A.** The IC50 was 5.74 µM.

**Q.** Which IC50 does the source give for O=C1NC(=O)N(Cc2ccc(F)cc2)C(=O)/C1=C\C=C\c1ccco1 here?
**A.** Its IC50 is 2.29 µM.

**Q.** For O=C(NCc1ccccc1)C(c1ccccc1)n1c(=O)c(-c2ccco2)nc2ccccc21 (stereo not given), which IC50 is on record?
**A.** The IC50 was 4.77 µM.

**Q.** How did the IC50 turn out when N#Cc1ccccc1OCc1cn(CC(=O)c2ccc(O)cc2)nn1 was run?
**A.** Its IC50 is 5.91 µM.

**Q.** For CC(C)(C)NC(=O)C(C1CC1)n1c(=O)c(-c2ccco2)nc2ccccc21 (stereo not given), which IC50 is on record?
**A.** Its IC50 is 7.1 µM.

**Q.** Cc1nc2c(o1)CCc1ccccc1C2N1CCN(C)CC1 (stereo not given) was tested. Which IC50 did it give?
**A.** The IC50 was 4.44 µM.

**Q.** With COc1cc2c(cc1OC)C(C)N(CCc1ccc(Cl)cc1)CC2 (stereo not given) as the molecule, how does the IC50 read?
**A.** The IC50 was 5.37 µM.

**Q.** How did the IC50 turn out when CC1(C)C2CCC(CN=C(N)CSS(=O)(=O)O)C1C2 (stereo not given) was run?
**A.** Its IC50 is 4.64 µM.

**Q.** For CCCNC(=O)Nc1ccc2c(c1)N(C)C(=O)c1ccccc1S2, which IC50 is on record?
**A.** Its IC50 is 4.21 µM.

**Q.** Which IC50 does the source give for Cc1ccc(C(=O)/C=C/c2cc(Br)cc(Br)c2O)o1 here?
**A.** The IC50 was “inactive”.

**Q.** CC(C)(C)NC(=O)C(c1ccccc1F)n1c(=O)c(-c2ccco2)nc2ccccc21 (stereo not given) was tested. Which IC50 did it give?
**A.** The IC50 was 4.2 µM.

**Q.** With CCc1nnc(NC(=O)c2nc(S(=O)(=O)Cc3ccccc3)ncc2Cl)s1 as the molecule, how does the IC50 read?
**A.** Its IC50 is 5.18 µM.

**Q.** For Cc1cccc(C)c1NC(=O)C(c1ccc(-c2ccccc2)cc1)n1c(=O)c(-c2ccco2)nc2ccccc21 (stereo not given), which IC50 is on record?
**A.** The IC50 was 2.64 µM.

**Q.** For CCSc1nnc(NC(=O)c2nc(S(=O)(=O)Cc3ccc(F)cc3)ncc2Cl)s1, which IC50 is on record?
**A.** Its IC50 is 3.78 µM.

**Q.** COc1ccccc1/C=C/C(=O)c1ccccc1 was tested. Which IC50 did it give?
**A.** The IC50 was 9.15 µM.

**Q.** How did the IC50 turn out when CC1=CC(C)(C)Nc2ccc(OC(=O)CN3C(=O)CCC3=O)cc21 was run?
**A.** Its IC50 is 3.21 µM.

**Q.** Which IC50 does the source give for COc1ccc(/C=C/C(=O)c2cc(F)ccc2OC(=O)c2ccc(OC)c(OC)c2)cc1OC here?
**A.** Its IC50 is 3.22 µM.

**Q.** How did the IC50 turn out when CN1CCC(=C2c3ccccc3CC(=O)c3sccc32)CC1 was run?
**A.** The IC50 was 5.57 µM and 5.43 µM.

**Q.** For CCN(CC)CCN(CC(=O)Nc1c(C)cc(C)cc1C)C(=O)c1ccccc1, which IC50 is on record?
**A.** The IC50 was 3.93 µM.

**Q.** For C#CCOCCOCCOCCNc1nc(N2CCN(C(=O)CCCCCCCCCCNC(=O)[C@@H](CCSC)n3cc(CCO)nn3)CC2)nc(N2CCN(C(=O)CCCCCCCCCCNC(=O)[C@@H]([C@H](C)O)n3cc(C)nn3)CC2)n1, which IC50 is on record?
**A.** The IC50 was “inactive”.

**Q.** How did the IC50 turn out when c1ccc(CCC2=NCCn3cccc32)cc1 was run?
**A.** The IC50 was 8.18 µM.

**Q.** With CCOC(=O)C1CCCN(C(=O)c2cc(Nc3ccc(OC)cc3)nc3ccccc23)C1 (stereo not given) as the molecule, how does the IC50 read?
**A.** The IC50 was “inactive”.

**Q.** For COc1cc(C)c2sc3ccccc3c(=O)c2c1NCCN(C)C, which IC50 is on record?
**A.** The IC50 was 3.94 µM.

**Q.** Which IC50 does the source give for CC1CCN(S(=O)(=O)c2ccc(NC(=O)Cc3ccccc3)cc2)CC1 here?
**A.** The IC50 was 5.73 µM.

**Q.** For CSc1nnc(NC(=O)c2nc(S(=O)(=O)Cc3ccccc3)ncc2Cl)s1, which IC50 is on record?
**A.** The IC50 was 4.13 µM.

**Q.** With COc1cccc2sc(N(CCCN(C)C)C(=O)COc3ccc(Cl)cc3)nc12 as the molecule, how does the IC50 read?
**A.** The IC50 was “inactive”.

**Q.** COc1ccc(/C=C\C(=O)CC(O)(c2ccccc2)C(F)(F)F)cc1 (stereo not given) was tested. Which IC50 did it give?
**A.** The IC50 was 1.97 µM.

**Q.** How did the IC50 turn out when CCCCNC(=O)Nc1ccc2c(c1)N(C)C(=O)c1ccccc1S2 was run?
**A.** The IC50 was 3.6 µM.

— PubChem BioAssay AID651733 (The Scripps Research Institute Molecular Screening Center, 2012)
